Laboratory results as given in paper PMC6952399, “Structures of lipoprotein signal peptidase II from Staphylococcus aureus complexed with antibiotics globomycin and myxovirescin” (Nature Communications, 2020).
Values joined by “and” are separate entries in the source; they are usually repeats but may differ in a detail not shown here. Identical values can stand only once.

Molecular target: T1, LspPae (lipoprotein signal peptidase II from Pseudomonas aeruginosa) (Pseudomonas aeruginosa, UniProt Q9HVM5)
T1 construct: made in house
T1 sequence (Q9HVM5 1-169): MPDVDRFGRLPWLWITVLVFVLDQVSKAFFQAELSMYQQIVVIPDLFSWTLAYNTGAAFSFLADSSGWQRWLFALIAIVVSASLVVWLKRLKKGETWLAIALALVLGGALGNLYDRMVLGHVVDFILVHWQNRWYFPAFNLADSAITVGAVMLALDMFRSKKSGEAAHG
Assay: FRET lipopeptide peptidase assay, LspPae
Format: biochemical
Details: for Fluorescence (RFU): FRET substrate + LspA + Myxovirescin; for Rate (RFU/min) / Normalised rate (Vi/V0): replicates 1 and 2; for Ki: estimated Ki’ (apparent inhibition constant)
Experimental: FRET activity assays. A FRET based assay was developed using a labelled lipopeptide substrate (Supplementary Methods, Supplementary Fig. 3b) to directly monitor the protease activity of LspA. The optimised LspMrs assay buffer included 100 mM Tris/HCl pH 7.8, 150 mM NaCl and 0.09%(w/v) DDM. The corresponding optimized buffer for LspPae included 100 mM MES/NaOH pH 5.6, 150 mM NaCl and 0.05%(w/v) LMNG. All assays were performed at 37 °C.
Reaction mixtures were prepared by vortexing (Clifton, cyclone CM-1) for 2 s and incubated at 37 °C, 800 rpm for 10 to 30 min. […] For dose-response assays, the final DMSO concentration in all reactions was 10%(v/v). Reaction mixtures were pipetted into wells of a 96- (Thermo Scientific) or a 384-well plate (4titude®) and incubated for 10 min at 37 °C in a SpectraMax M3 or a SpectraMax M5e plate reader (Molecular devices) prior to starting the assay. Assays were initiated by adding enzyme to a final concentration in the range 10–300 nM. Total reaction mixture volume was 50 μL. Reactions were monitored by fluorescence (Ex/Em, 320 nm/420 nm) for 30 to 60 min at 37 °C. Initial rates were calculated from the fluorescence intensity versus time progress curves (Supplementary Figs. 5 and 6). Occasionally, lag periods in the progress curves were observed (Supplementary Discussion). In such cases, initial rates were calculated after the lag period had passed (typically 1–5 min) and a steady rate had been established. Dose-response plots to determine IC50 values were generated using Prism® 5 software from GraphPad.
It was possible to convert units of fluorescence change into moles of substrate consumed or products formed because pure products of LspA action on Abz-LALAGC*SS-nY-NH2 had been synthesized and were available. These were used to create a standard curve of fluorescence versus moles of the two products in equimolar amounts and to calculate specific activity values. […]
One consequence of LspMrs having a relatively low specific activity is that, in order to get a reliable signal in activity assays, it was necessary to raise enzyme concentration. For kinetic measurements generally, it is desirable to use an enzyme concentration that is much lower than that of the substrate. In this situation, the usual assumption that added and free substrate concentrations are equal is valid. At high enzyme concentrations [E] therefore, and especially in the case of tight ligand binding where the inhibition constant, Ki, is small, a measured IC50 is limited to [E]/2 4–6. In such circumstances, a meaningful IC50 or Ki can only be obtained with considerable effort. With a few exceptions in the current study, this situation prevailed with both LspA orthologs where IC50 values came close to [E]/2 (Table 1 and Supplementary Table 3, Supplementary Fig. 6). […]
Inhibition of LspA from E. coli by globomycin has been described as non-competitive7. The evidence provided in support o f this conclusion included an insensitivity of IC 50 to substrate concentration and the fact that the Vmax but not the K m changed with globomycin concentration. It was of interest to determine if a similar mode of inhibition applied to LspPae and LspMrs. From published work7–9 and from FRET-based kinetics measurements reported here, we know that globomycin binds with high affinity (Supplementary Fig. 6). Tight binding means that a more in-depth analysis must be carried out in order to identify inhibition type. For such analysis, it is important to know active enzyme concentration accurately. Fortunately, it was possible to use the property of tight inhibitor binding to measure the concentration of active enzyme ( Supplementary Fig. 18a). In the case of LspPae, the estimated value and the concentration determined spectroscopically agreed remarkably well. Parenthetically we note that knowing active LspPae concentration accurately enabled a characterization of the myxovirescin sample used in this study. Myxovirescin also binds tightly to LspA (Supplementary Fig. 6). […]

[1] = Suppl. Fig. 18b, [Myxovirescin] 0.02 μM
[2] = Suppl. Fig. 18b, [Myxovirescin] 0.05 μM
[3] = Suppl. Fig. 18b, [Myxovirescin] 0.08 μM
[4] = Suppl. Fig. 18b, [Myxovirescin] 0.1 μM
[5] = Suppl. Fig. 18b, [Myxovirescin] 0.12 μM
[6] = Suppl. Fig. 18b, [Myxovirescin] 0.15 μM
[7] = Suppl. Fig. 18b, [Myxovirescin] 0.25 μM
[8] = Suppl. Fig. 18c, [Myxovirescin] nominal conc. 0.02 μM, corrected conc. 0.01454 μM
[9] = Suppl. Fig. 18c, [Myxovirescin] nominal conc. 0.05 μM, corrected conc. 0.03635 μM
[10] = Suppl. Fig. 18c, [Myxovirescin] nominal conc. 0.08 μM, corrected conc. 0.05816 μM
[11] = Suppl. Fig. 18c, [Myxovirescin] nominal conc. 0.1 μM, corrected conc. 0.0727 μM
[12] = Suppl. Fig. 18c, [Myxovirescin] nominal conc. 0.12 μM, corrected conc. 0.08724 μM
[13] = Suppl. Fig. 18c, [Myxovirescin] nominal conc. 0.15 μM, corrected conc. 0.10905 μM
[14] = Suppl. Fig. 18c, [Myxovirescin] nominal conc. 0.25 μM, corrected conc. 0.18175 μM

## CCCC1OC(=O)C(C)CC(C)CCCCC(=O)CCCC(CC)C=CC=C(COC)CCC(O)C(O)CC(O)CNC1=O (centres unmarked) [myxovirescin, myxovirescin A1]
5-fold molar excess of antibiotic added 20 to 30 min after start of reaction
  inhibitor on-rates: fast
Time 27 min
  Fluorescence (RFU): 524.203 RFU
Time 27.5 min
  Fluorescence (RFU): 527.644 RFU
Time 28 min
  Fluorescence (RFU): 525.326 RFU
Time 28.5 min
  Fluorescence (RFU): 532.036 RFU
Time 29 min
  Fluorescence (RFU): 530.446 RFU
Time 29.5 min
  Fluorescence (RFU): 520.770 RFU
Time 30 min
  Fluorescence (RFU): 525.266 RFU
Time 30.5 min
  Fluorescence (RFU): 523.492 RFU
Time 31 min
  Fluorescence (RFU): 522.555 RFU
Time 31.5 min
  Fluorescence (RFU): 520.169 RFU
Time 32 min
  Fluorescence (RFU): 526.741 RFU
Time 32.5 min
  Fluorescence (RFU): 523.010 RFU
Time 33 min
  Fluorescence (RFU): 519.722 RFU
Time 33.5 min
  Fluorescence (RFU): 528.885 RFU
Time 34 min
  Fluorescence (RFU): 517.843 RFU
Time 34.5 min
  Fluorescence (RFU): 518.721 RFU
Time 35 min
  Fluorescence (RFU): 516.893 RFU
Time 35.5 min
  Fluorescence (RFU): 521.148 RFU
Time 36 min
  Fluorescence (RFU): 519.865 RFU
Time 36.5 min
  Fluorescence (RFU): 522.746 RFU
Time 37 min
  Fluorescence (RFU): 519.603 RFU
Time 37.5 min
  Fluorescence (RFU): 522.440 RFU
Time 38 min
  Fluorescence (RFU): 518.255 RFU
Time 38.5 min
  Fluorescence (RFU): 516.274 RFU
Time 39 min
  Fluorescence (RFU): 516.879 RFU
Time 39.5 min
  Fluorescence (RFU): 521.400 RFU
Time 40 min
  Fluorescence (RFU): 509.974 RFU
Time 40.5 min
  Fluorescence (RFU): 516.718 RFU
Time 41 min
  Fluorescence (RFU): 513.520 RFU
Time 41.5 min
  Fluorescence (RFU): 514.018 RFU
Time 42 min
  Fluorescence (RFU): 520.839 RFU
Time 42.5 min
  Fluorescence (RFU): 520.491 RFU
Time 43 min
  Fluorescence (RFU): 514.424 RFU
Time 43.5 min
  Fluorescence (RFU): 516.271 RFU
Time 44 min
  Fluorescence (RFU): 509.335 RFU
Time 44.5 min
  Fluorescence (RFU): 511.506 RFU
Time 45 min
  Fluorescence (RFU): 512.926 RFU
Time 45.5 min
  Fluorescence (RFU): 515.088 RFU
Time 46 min
  Fluorescence (RFU): 509.497 RFU
Time 46.5 min
  Fluorescence (RFU): 509.153 RFU
Time 47 min
  Fluorescence (RFU): 505.807 RFU
Time 47.5 min
  Fluorescence (RFU): 508.613 RFU
Time 48 min
  Fluorescence (RFU): 508.252 RFU
Time 48.5 min
  Fluorescence (RFU): 514.611 RFU
Time 49 min
  Fluorescence (RFU): 508.852 RFU
Time 49.5 min
  Fluorescence (RFU): 511.333 RFU
Time 50 min
  Fluorescence (RFU): 507.505 RFU
Time 50.5 min
  Fluorescence (RFU): 508.404 RFU
Time 51 min
  Fluorescence (RFU): 511.832 RFU
IC50, 20 nM LspPae, substrate 5 µM
  IC50: 9.76 nM and 12.3 nM
IC50, 20 nM LspPae, substrate 7.5 µM
  IC50: 10.4 nM and 12.9 nM
IC50, 20 nM LspPae, substrate 10 µM
  IC50: 11.1 nM and 14.4 nM
IC50, 20 nM LspPae, substrate 15 µM
  IC50: 8.51 nM and 11.1 nM
IC50, 20 nM LspPae, substrate 20 µM
  IC50: 9.14 nM and 13.9 nM
IC50, 20 nM LspPae, substrate 30 µM
  IC50: 11.4 nM and 13.8 nM
IC50, FRET, 0.1 µM enzyme, 30 µM substrate, initial rates
  IC50: 53 nM
IC50, LspPae concentration 10 nM
  IC50: 4.1 nM and 5 nM
IC50, LspPae concentration 20 nM
  IC50: 13.5 nM and 21.2 nM
IC50, LspPae concentration 40 nM
  IC50: 20.3 nM and 26.1 nM
IC50, LspPae concentration 60 nM
  IC50: 24.5 nM and 34.1 nM
IC50, LspPae concentration 80 nM
  IC50: 41.7 nM and 50.6 nM
IC50, LspPae concentration 100 nM
  IC50: 49.2 nM and 55.8 nM
LspPae block, log [myxo] (uM) -0.82
  Rate (RFU/min): 0.2 RFU/min
LspPae block, log [myxo] (uM) -0.92
  Rate (RFU/min): 0.1 RFU/min and 0.2 RFU/min
LspPae block, log [myxo] (uM) -1.00
  Rate (RFU/min): 0.1 RFU/min and 0.2 RFU/min
LspPae block, log [myxo] (uM) -1.10
  Rate (RFU/min): 1.3 RFU/min and 1.5 RFU/min
LspPae block, log [myxo] (uM) -1.30
  Rate (RFU/min): 5.8 RFU/min and 6.2 RFU/min
LspPae block, log [myxo] (uM) -1.70
  Rate (RFU/min): 10.2 RFU/min and 10.1 RFU/min
LspPae block, log [myxo] (uM) -2.00
  Rate (RFU/min): 11.4 RFU/min and 11.5 RFU/min
[1]
  Normalised rate (Vi/V0): 0.8634 and 0.8943
  Rate (RFU/min): 45.52 RFU/min and 45.67 RFU/min
[2]
  Normalised rate (Vi/V0): 0.6591 and 0.6875
  Rate (RFU/min): 34.75 RFU/min and 35.11 RFU/min
[3]
  Normalised rate (Vi/V0): 0.4365 and 0.4511
  Rate (RFU/min): 23.01 RFU/min and 23.04 RFU/min
[4]
  Normalised rate (Vi/V0): 0.2771 and 0.2863
  Rate (RFU/min): 14.61 RFU/min and 14.62 RFU/min
[5]
  Normalised rate (Vi/V0): 0.09825 and 0.09947
  Rate (RFU/min): 5.18 RFU/min and 5.08 RFU/min
[6]
  Normalised rate (Vi/V0): 0.01309 and 0.02976
  Rate (RFU/min): 0.69 RFU/min
[7]
  Normalised rate (Vi/V0): 0.01574 and 0.02741
  Rate (RFU/min): 0.83 RFU/min and 1.4 RFU/min
[8]
  Normalised rate (Vi/V0): 0.8634 and 0.8943
  Rate (RFU/min): 45.52 RFU/min and 45.67 RFU/min
[9]
  Normalised rate (Vi/V0): 0.6591 and 0.6875
  Rate (RFU/min): 34.75 RFU/min and 35.11 RFU/min
[10]
  Normalised rate (Vi/V0): 0.4365 and 0.4511
  Rate (RFU/min): 23.01 RFU/min and 23.04 RFU/min
[11]
  Normalised rate (Vi/V0): 0.2771 and 0.2863
  Rate (RFU/min): 14.61 RFU/min and 14.62 RFU/min
[12]
  Normalised rate (Vi/V0): 0.09825 and 0.09947
  Rate (RFU/min): 5.18 RFU/min and 5.08 RFU/min
[13]
  Normalised rate (Vi/V0): 0.01309 and 0.02976
  Rate (RFU/min): 0.69 RFU/min
[14]
  Normalised rate (Vi/V0): 0.01574 and 0.02741
  Rate (RFU/min): 0.83 RFU/min and 1.4 RFU/min
Average IC50, 20 nM LspPae, substrate 2.5 or 5 to 30 µM
  IC50: ~10 nM
Morrison analysis, 30 µM substrate, 0.1 µM LspPae
  Ki: 0.0476 ± 0.128 nM
From dependence of IC50 on enzyme concentration, IC50 = Ki’ + [E]/2
  Ki: 2.69 ± 2.8 nM
